We go through one compound from ChEMBL document CHEMBL4371026, “Prodrugs of the cancer cell selective anti-cancer agent (Z)-2-(1H-indol-3-yl)-3-(isoquinolin-5-yl)acrylonitrile (A131) are orally efficacious in a mouse model of resistant colon cancer” (Bioorg Med Chem Lett, 2019).

Series [1] deals with HCT-15. Briefly: Anticancer activity against paclitaxel-resistant human HCT15 cells xenografted in BALB/c athymic mouse assessed as tumor volume at 40 mg/kg, ip administered twice a day for 12 days measured on day 3 (reference value: 180 +/- 36 mm3). The series is classed as functional. (Xenograft models place foreign cells or tissue in a host animal.)
The subject of series [2] is HCT-15. Briefly: Anticancer activity against paclitaxel-resistant human HCT15 cells xenografted in BALB/c athymic mouse assessed as tumor volume at 40 mg/kg, ip administered twice a day for 12 days measured on day 5 (reference value: 329 +/- 45 mm3). The series is classed as functional.
The subject of series [3] is HCT-15. Briefly: Anticancer activity against paclitaxel-resistant human HCT15 cells xenografted in BALB/c athymic mouse assessed as tumor volume at 40 mg/kg, ip administered twice a day for 12 days measured on day 9 (reference value: 546 +/- 87 mm3). The series is classed as functional.
Series [4] relates to HCT-15. Nature of the series: Anticancer activity against paclitaxel-resistant human HCT15 cells xenografted in BALB/c athymic mouse assessed as tumor volume at 80 mg/kg, po administered twice a day for 12 days measured on day 1 (reference value: 110 +/- 11 mm3). Type of series: functional.
Series [5] relates to HCT-15. Nature of the series: Anticancer activity against paclitaxel-resistant human HCT15 cells xenografted in BALB/c athymic mouse assessed as tumor volume at 40 mg/kg, ip administered twice a day for 12 days measured on day 7 (reference value: 495 +/- 109 mm3). The series is classed as functional.
Series [6] has as its system HCT-15. Briefly: Anticancer activity against paclitaxel-resistant human HCT15 cells xenografted in BALB/c athymic mouse assessed as tumor growth inhibition at 80 mg/kg, po administered twice a day for 12 days relative to control. The series is classed as functional. The following applies: HCT-15, po, 288 h, read-out: TGI.
A short description of series [7]: Solubility of the compound in 10%DMSO/50%PEG400/40%H2O. The series is classed as physicochemical.
For series [8], the system named is HCT-15. Briefly: Anticancer activity against paclitaxel-resistant human HCT15 cells xenografted in BALB/c athymic mouse assessed as tumor volume at 80 mg/kg, po administered twice a day for 12 days measured on day 9 (reference value: 546 +/- 87 mm3). The series is classed as functional.
The subject of series [9] is HCT-15. Nature of the series: Anticancer activity against paclitaxel-resistant human HCT15 cells xenografted in BALB/c athymic mouse assessed as tumor volume at 80 mg/kg, po administered twice a day for 12 days measured on day 7 (reference value: 495 +/- 109 mm3). Type of series: functional.
Series [10] relates to HCT-15. Nature of the series: Anticancer activity against paclitaxel-resistant human HCT15 cells xenografted in BALB/c athymic mouse assessed as tumor volume at 80 mg/kg, po administered twice a day for 12 days measured on day 5 (reference value: 329 +/- 45 mm3). The series is classed as functional.
The subject of series [11] is HCT-15. Briefly: Anticancer activity against paclitaxel-resistant human HCT15 cells xenografted in BALB/c athymic mouse assessed as tumor volume at 40 mg/kg, ip administered twice a day for 12 days measured on day 1 (reference value: 110 +/- 11 mm3). The series is classed as functional.
Series [12] relates to HCT-15. Nature of the series: Anticancer activity against paclitaxel-resistant human HCT15 cells xenografted in BALB/c athymic mouse assessed as tumor volume at 40 mg/kg, ip administered twice a day for 12 days measured on day 12 (reference value: 779 +/- 144 mm3). The series is classed as functional.
Series [13] deals with HCT-15. Nature of the series: Anticancer activity against paclitaxel-resistant human HCT15 cells xenografted in BALB/c athymic mouse assessed as tumor volume at 80 mg/kg, po administered twice a day for 12 days measured on day 3 (reference value: 180 +/- 36 mm3). Type of series: functional.
Series [14] has as its system HCT-15. Briefly: Anticancer activity against paclitaxel-resistant human HCT15 cells xenografted in BALB/c athymic mouse assessed as tumor volume at 80 mg/kg, po administered twice a day for 12 days measured on day 12 (reference value: 779 +/- 144 mm3). Type of series: functional.

One may read the solubility as how much of the substance goes into solution per volume. For `CN1CCN(CC(=O)n2cc(/C(C#N)=C/c3cccc4cnccc34)c3ccccc32)CC1.O=C(O)C(F)(F)F`, the Activity in the series with HCT-15 [1] is 109 mm3; in the series with HCT-15 [2] it was 199 mm3; in the series on HCT-15 [3], 196 mm3; in the series with HCT-15 [4] it was 96 mm3; in the series on HCT-15 [5], 171 mm3; in the series with HCT-15 [8], 209 mm3. For the same compound, the Activity with HCT-15 [9] was determined as 165 mm3; with HCT-15 [10], 143 mm3; with HCT-15 [11] it was 100 mm3; in the series with HCT-15 [12] it was 244 mm3; in the series on HCT-15 [13] it was 95 mm3; with HCT-15 [14] it was 258 mm3. Further, the inhibition in vivo at 80 mg/kg in the series with HCT-15 [6] was 75.8 to 76%. For the same compound, in series [7], the solubility is 8000 µg/mL.
